Data reported in ChEMBL document CHEMBL1134167, “Conformational study of a highly specific CXCR4 inhibitor, T140, disclosing the close proximity of its intrinsic pharmacophores associated with strong anti-HIV activity” (Bioorg Med Chem Lett, 2001).
Where a SMILES comes first, the peptide text is derived from it. Bridges are numbered along the chain shown (N, C = ends). [ ]: non-standard residue; d: D form. Gly(2-naphthyl) = N[C@H](C(=O)O)c1ccc2ccccc2c1; Cit = NC(=O)NCCC[C@H](N)C(=O)O

System: Human immunodeficiency virus 1
Test: Effective concentration for HIV-1 inhibition
Type: functional, organism-based

NCCCC[C@@H]1NC(=O)[C@H](CCCN=C(N)N)NC(=O)[C@H](Cc2ccc(O)cc2)NC(=O)[C@@H](NC(=O)[C@@H](NC(=O)[C@H](CCCN=C(N)N)NC(=O)[C@@H](N)CCCN=C(N)N)c2ccc3ccccc3c2)CSSC[C@@H](C(=O)N[C@@H](CCCN=C(N)N)C(=O)O)NC(=O)[C@H](CCCNC(N)=O)NC(=O)[C@H](CCCN=C(N)N)NC(=O)[C@H](Cc2ccc(O)cc2)NC(=O)[C@@H]2CCCN2C(=O)[C@@H](CCCCN)NC1=O (H-RR[Gly(2-naphthyl)]CYRK[dK]PYR[Cit]CR-OH; disulfide 4-13)
EC50: 3.5 nM
